Tested on: TKp53^L/Lp16^L/L melanoma cells
Experiment: in vitro scratch (wound healing) assay with dasatinib
Type: cell-based, murine
Settings: 30 nM dasatinib, 12 hours after wounding
Protocol: FIG. 4C is a bar graph of closure index for TKp53^L/Lp16^L/L melanoma cells with LKB1 knockdown treated with vehicle (shLkb1+DMSO) or 30 nM dasatinib (shLkb1+Dasatinib) and for TKp53^L/Lp16^L/L melanoma cells without Lkb1 knockdown treated with vehicle (NS+DMSO) or 30 nM dasatinib (NS+Dasatinib). Closure index was measured 12 hours after wounding. The asterisks indicate a significant difference (P<0.05).
The in vitro scratch (wound healing) assay was performed as described previously. See Carretero et al., 2010. Briefly, a 1 mm wide scratch was made on a confluent monolayer, and cells were then allowed to grow under standard conditions for 12 hours. The migrated distance was quantified using Image J™ software. “Close Index” was determined as 1-f, where f is calculated as the remaining gap area divided by the starting scratched area. Cell invasion was measured using matrigel invasion assay using invasion chambers obtained from BD Biosciences (San Jose, Calif., United States of America), with assays performed according to the manufacturer's instructions. Cells of the indicated genotypes (2.5×10^4) were added to the upper chamber in 500 uL of serum-free medium, and the lower chamber was filled with 750 uL of medium containing 10% fetal bovine serum (FBS) as an attractant. After 24 hours of incubation, cells on the underside of the filter were fixed, stained and counted. […]

For `Cc1nc(Nc2ncc(C(=O)Nc3c(C)cccc3Cl)s2)cc(N2CCN(CCO)CC2)n1` [dasatinib], which “decrease in cell migration (closure index)” value (Lkb-intact melanoma cells (NS)) is on record?
The value was 14%.

And the “decrease in cell migration (closure index)” value (melanoma cells with Lkb1 knockdown (shLkb1))?
The value was 27%.
